Patent US5733904A, “Method for prevention and treatment of viral infectious diseases for viral suppression” (priority 1996, dated 1998)

Tests used:
[1] = test system: HIV-1; test: Comparison of suppressive activity of HIV proliferation with FAS and other anti-HIV drugs (syncytium formation); assay type: cell-based; settings: for IC50: Human immunodeficiency virus 1, FIG. 5, approximate, read-out: 50% inhibitory concentration, syncytium formation
Protocol: Comparison of suppressive activity of HIV proliferation with FAS and other anti-HIV drugs.
Experiments were conducted by the same method as in Example 3.
The medicaments used in this experiment were compounds of the present invention (FAS, and a compound of formula [I] where R^1 is hydroxy as in the above-mentioned Japanese Patent Unexamined Publication No. 61-152658), ddI (Sigma Corp.) and AZT (Sigma Corp.) which are used as medicaments for the treatment of AIDS, and dextran sulfate (Sigma Corp.).

[2] = test system: rabbit platelets; test: Platelet aggregation; assay type: cell-based, rabbit (male, Japanese white); settings: for Platelet aggregation rate, ADP: ADP 5 μM, control 66.3 ± 1.4; for Platelet aggregation rate, ADP / Platelet aggregation rate, Collagen: N=4, mean ± S.E.; for Platelet aggregation rate, Collagen: collagen 5 μg/ml, control 82.3 ± 1.6
Protocol: Rabbits (male, Japanese white, body weight 2-3 kg, Oriental Yeast Co.) were used. Blood was collected from an ear vein, a 1/10 volume of 3.8% sodium citrate was added thereto, and the mixture was centrifuged at 1,000 rpm for 10 minutes.
The supernatant separated by this action was designated platelet rich plasma (PRP), and the precipitate was further centrifuged at 3,000 rpm for 10 minutes to obtain a further supernatant, which was designated platelet poor plasma (PPP).
The number of platelets in the PRP was adjusted to 3×10^5 plate/μl by adding the PPP. A test sample was added to the PRP. After 1 minute, a prepared aqueous solution of ADP (adenosine diphosphate, Sigma Corp.) was added at the final concentration of 5 μM, or an aqueous solution of collagen (Sigma Corp.) was added at the final concentration of 5 μg/ml. The agglutination reaction was measured by using an agglico meter (NBS HEMA TRACER VI). The inhibition rate was calculated by comparing the maximum optical transmittance in samples with the compound to the maximum optical transmittance in samples with a physiological saline.
The compounds used were compounds of the present invention (FAS, and the compound of formula [I] where R^1 is hydroxy (Japanese Patent Unexamined Publication No. 61-152658) and adenosine (Sigma Corp.).

[3] = test system: rabbit plasma; test: Blood coagulation time (APTT, PT); set-up: species or system rabbit (male, Japanese white); settings: for PT / APTT: N=4, mean ± S.E.; for PT: control 5.8 ± 0.1; for APTT: control 21.2 ± 0.5
Protocol: a) Blood coagulation time:
Rabbits (male, Japanese white, body weight 2-3 kg, Oriental Yeast Co.) were used. […] After adding the test compound to the resultant plasma, activated partial thromboplastin time (APTT) and prothrombin time (PT) were measured by using a coagulometer (Coagtec, Coagtec TE600, EMRA; KC-10A, Baxter).

[4] = Acute toxicity in mice; set-up: species or system mouse (Slc: ddy, 5 weeks); settings: mouse, in vivo, iv, i. v., male
Protocol: Acute toxicity of the compounds of the present invention were conducted on rats and mice, and low toxicity was confirmed.

[5] = test system: Herpes simplex virus type I; test: Inhibitory action for plaque formation of Herpes simplex virus type I; assay type: cell-based; settings: mean of two, control 51
Protocol: (§1) Experiments were performed according to a method described in Antiviral Chemistry and Chemotherapy, 5 (6), 366-371, 1994 and Experimental Virology, Ed. by NIH Japan alumni assoc., Maruzen Publ. 1982, p. 65-78 or p. 331-340.
(§2) Vero cells cultured in the medium (Dulbecco's modified MEM added with 10% FBS) were detached by trypsin (Sigma Corp.). The detached cells were suspended by 2×10^5 cells/ml in the same medium, and placed in the wells of a 48 hole plate. The plate was incubated at 37° C. under 5% CO2 for about one day to complete a full-sheet of the cells in all wells. After incubation, cultured supernatant was removed. A solution (50 μl) containing the compound diluted with 4-fold stepwise dilution by virus culture medium (MM: Dulbecco's modified MEM added with 2% FBS), was added thereto.
(§3) A viral solution, 50 μl, in which the number of virus (parainfluenza virus or Herpes simplex virus type I) was adjusted to about 50 pfu (plaque forming unit)/50 μl by MM, was added to each well. MM 400 μl containing 1% methylcellulose was added in each well to provide a compound-added test group. A control group was prepared by adding the viral culture medium without adding the test compound.
(§4) The groups were incubated at 37° C. under 5% CO2 for three days to form plaques and the number of plaques in each well was counted.
(§5) The test compounds were FAS, and the compound of formula [I] where R^1 is hydroxy. The final concentration of the compound in the solution was set to 100, 25, 6.3 and 1.6 μg/ml, respectively. Each test group included 2 wells and a mean of the plaque numbers was obtained.

[6] = test system: parainfluenza virus; test: Inhibitory action for plaque formation of parainfluenza virus; assay type: cell-based; settings: mean of two, control 51.5
Protocol: as §1, §2, §3, §4, §5

[7] = test system: HIV-1 (LAV-1 strain) in MOLT-4 cells; test: Inhibitory activity of HIV syncytia formation: HIV-1 acute-phase infection; assay type: cell-based; settings: for inhibition at 30 µM: Human immunodeficiency virus 1, MOLT-4, in concentrations of 30 μM, 48 hours; for inhibitory effects on syncytia formation: in concentrations of 2.0 μM
Protocol: a) Activity of the medicament on HIV-1 acute-phase infection:
Cells obtained by culturing MOLT-4 (American Type Culture Collection ATCC CRL-1582) in RPMI medium (GIBCO Corp.) containing 10% FBS (fetal bovine serum: GIBCO Corp.) (culture condition: 37° C., 5% CO2 /95% air) were prepared to aliquot number of cells (1×10^5 cells/50 μl). The cell suspension, 50 μl and the liquid preparation, 50 μl containing HIV-1 (LAV-1 strain, Wain-Hobson et al., Cell 40: 9-17, 1985) in RPMI medium with 10% FBS were put into each well of a 96 hole microplate and cultured for 48 hours (Infectious condition of MOLT-4 and HIV-1: M.O.I.=4.0).
Each compound was dissolved in RPMI medium containing 10% FBS at the final concentration as shown in FIG. 1 to prepare the medicament solution. The medicament solution, 100 μl was added to the mixture of MOLT-4 cell preparation and HIV-1 preparation at the time of mixing with MOLT-4 and HIV-1 to prepare the final volume of the liquid, 200 μl. The number of formed syncytia were microscopically counted.
Tested compounds were: FAS (fasudil hydrochloride, Chem. Pharm. Bull., 40 (3), 770-773, (1992)), C kinase inhibitor H-7 (1-5-isoquinolinylsulfonyl)-2-methyl-piperazine, Sigma Corp.), and calmodulin kinase II inhibitor KN-62 (1-(N,O-bis-[5-isoquinolinylsulfonyl]-N-methyl-L-tyrosyl)-4-phenyl-piperazine, Sigma Corp., Neuroscience Lett., 129, 47 (1991)) .
The control group without the compound was prepared by replacing the medicament solution, 100 μl.
Syncytium formation activity was calculated by comparing the syncytia formation in the test group to that of the control group in the following equation.
Syncytium formation activity=number of syncytia formed in the medicament-added group/number of syncytia formed in the no-medicament-added group.

[8] = test system: HIV-1 (LAV-1) persistently infected MOLT-4 cells with non-infected MOLT-4 cells; test: Inhibitory activity of HIV syncytia formation: HIV-1 chronic-phase infection; assay type: cell-based; settings: FIG. 2; 48 hours
Protocol: b) Activity of the medicament on HIV-1 chronic-phase infection:
Cells obtained by culturing MOLT-4 (culture condition: 37° C., 5% CO2 /95% air, RPMI medium (GIBCO Corp.) containing 10% FBS) were adjusted to a preferable number of cells (1×10^5 cells/50 μl). HIV-1 (LAV-1) preparation, 50 μl was added to the cell suspension, 50 μl and subjected to a mixing culture (infectious condition of HIV-1 to MOLT-4: M.O.I.=1). The infected cell mixture was cultured by exchanging a fresh culture medium every 3 days at a volume rate of 2:5. The culture was continued for more than 1 month to prepare persistent infected cells. The concentration of the persistent infected cells was adjusted to a preferable number of cells (1×10^5 cells/50 μl ) (the persistent infected cell preparation).
Cell preparation without infection was prepared by culturing MOLT-4 (culture condition: 37° C., 5% CO2 /95% air, RPMI medium (GIBCO Corp.) containing 10% FBS) and adjusting the concentration to a preferable number of cells (1×10^5 cells/50 μl).
The persistent infected cell preparation, 50 μl, was placed in the wells of a 96 hole microplate and the non-infected cell preparation, 50 μl, was added therein and cultured for 48 hours. Numbers of the formed syncytia were counted microscopically.
Each compound solution tested was added, 100 μl, at the time of mixing the persistent infected cell preparation with the non-infected cell preparation, to provide the final concentrations shown in FIG. 2 (medicament added test group).
The no-medicament-added group (control group) was prepared by replacing the compound solution, 100 μl.

[9] = test system: Env (gp120) protein, HIV-1 infected MOLT-4 cells; test: Suppressive action on expression of Env (gp120) protein on the surface of cells; assay type: cell-based; settings: FIG. 3; Env positive cells after 5 days
Protocol: (Suppressive action on expression of Env (gp120) protein on the surface of cells.)
Cells obtained by culturing MOLT-4 (culture condition: 37° C., 5% CO2 /95% air, RPMI medium (GIBCO Corp.) containing 10% FBS) were adjusted to a preferable number of cells (1×10^5 cells/50 μl ). The cell suspension, 50 μl, (infected with MOLT-4 and HIV-1: M.O.I.=1.0) was put in a 96 hole microplate and cultured for 1 hour to infect the cells.
A solution of the compound shown below, 100 μl, was added in each well and cultured for 5 days. The cultured solution was transferred into a plastic tube (Eppendorf Corp.) and centrifuged to collect the cells. The cells were treated with mouse anti-Env gp120 monoclonal antibody (Replingen Inc.) as a primary antibody and FITC (Fluorescein Isothiocyanate) labelled goat anti-mouse IgG (Cappel Corp.) as a secondary antibody to fluoresce. The number of fluorescent cells was fluoroscopically calculated by counting fluorescent cells according to an indirect fluorescent antibody technique (Techniques in HIV Research, Ed. A. Aldoriny and B. D. Walker, Stokton Press, New York, 1990).
Env positive cells (%) was calculated by the following equation:
Env positive cells (%)=(FITC) positive cells/total cells)×100
Compounds: FAS, H-7 and KN-62.
Control: solution without compound was used.

[10] = test system: HIV; settings: Antiviral Res., 22: 273-283, 1993; cited from earlier work

Cc1cn([C@H]2C[C@H](N=[N+]=[N-])[C@@H](CO)O2)c(=O)[nH]c1=O [AZT, 3'-azido-3'-deoxythymidine]
IC50 [1]: ~50 µM

Nc1ncnc2c1ncn2[C@@H]1O[C@H](CO)[C@@H](O)[C@H]1O [Adenosine, adenosine]
effect on ADP coagulation and collagen coagulation [2]: suppressed ADP coagulation and collagen coagulation

O=S(=O)(c1cccc2c(O)nccc12)N1CCCNCC1 [Compound of the formula [I] (R^1 = OH)]
inhibitory activity of syncytium formation of HIV-1 [1]: inhibited the formation of syncytium of HIV-1 | effect on blood coagulation time (APTT, PT) [3]: no effect on blood coagulation time | PT ([3]; 30 μM): 5.6 ± 0.1 s | APTT ([3]; 30 μM): 20.2 ± 0.4 s | PT ([3]; 100 μM): 5.5 ± 0.1 s | APTT ([3]; 100 μM): 20.1 ± 0.4 s | Platelet aggregation rate, ADP ([2]; 10 μM): 63.0 ± 2.3% | Platelet aggregation rate, Collagen ([2]; 10 μM): 80.0 ± 1.7% | Platelet aggregation rate, ADP ([2]; 30 μM): 63.8 ± 2.9% | Platelet aggregation rate, Collagen ([2]; 30 μM): 79.3 ± 1.1% | Platelet aggregation rate, ADP ([2]; 100 μM): 64.3 ± 3.8% | Platelet aggregation rate, Collagen ([2]; 100 μM): 81.0 ± 1.2% | LD50 [4]: 119 mg/kg | Plaque No. ([5]; 1.6 μg/ml): 51 | Plaque No. ([5]; 6.3 μg/ml): 51 | Plaque No. ([5]; 25 μg/ml): 56 | Plaque No. ([5]; 100 μg/ml): 37.5 | Plaque No. ([6]; 25 μg/ml): 59 | Plaque No. ([6]; 100 μg/ml): 4.5

CC1CNCCN1S(=O)(=O)c1cccc2cnccc12 (centres unmarked) [H-7, 1-(5-isoquinoryl-sulfonyl)-2-methyl-piperazine]
inhibition at 30 µM [7]: ~50% | inhibitory effects on syncytia formation [7]: no inhibitory effects were observed | inhibitory activity for syncytium formation [8]: no inhibitory activity for syncytium formation | inhibitory activity for Env expression [9]: no significant inhibitory activity for Env expression | effectiveness against HIV infectious disease [10]: has not been found to be clearly effective

CN([C@@H](Cc1ccc(OS(=O)(=O)c2cccc3cnccc23)cc1)C(=O)N1CCN(c2ccccc2)CC1)S(=O)(=O)c1cccc2cnccc12 [KN-62, 1-(N,O-bis-[5-isoquinolinylsulfonyl]-N-methyl-L-tyrosyl)-4-phenyl-piperazine]
inhibition at 30 µM [7]: ~75% | inhibitory effects on syncytia formation [7]: no inhibitory effects were observed | inhibitory activity for syncytium formation [8]: no inhibitory activity for syncytium formation | inhibitory activity for Env expression [9]: weak inhibitory activity for Env expression

OC[C@@H]1CC[C@H](n2cnc3c(O)ncnc32)O1 [ddI, 2', 3'-dideoxyinosine]
IC50 [1]: ~100 µM

Heparin
effect on blood coagulation time (APTT, PT) [3]: clearly extended APTT and PT
